Patent US20110165115A1, “SYNERGISTIC ATTRACTANTS FOR PESTIFEROUS SOCIAL INSECTS” (STERLING INTERNATIONAL INC., priority 2010, published 2011)

What was measured:
[1] = system: V. pensylvanica; assay: Field trapping Experiment 1, Rescue W•H•Y traps; type: in vivo, Vespula pensylvanica; conditions: Exp 1; HIPV added to WHY attractant in the top chamber, or WHY alone
Experimental: (§1) Three field trapping experiments were carried out during late July to early August 2009, in residential and woody areas around Spokane, Wash., USA, using the newly marketed Rescue® W•H•Y traps (www.rescue.com). As used herein, the W•H•Y trap is a trap in accordance with the description of United States Patent Application Publication No. 2009/0151228. The W•H•Y trap has a top chamber and a bottom chamber. The top chamber is baited with two attractants—one of which is a solid contained in a vial (2-methyl-1-butanol) and the other a liquid mixed with water (acetic acid), herein referred to as the W•H•Y top attractant. The bottom chamber is baited with a liquid attractant (heptyl butyrate) poured onto a cotton pad, herein referred to as the W•H•Y bottom attractant. Separation of the top and bottom attractants (otherwise antagonistic to each other when released from the same chamber) in two chambers was a design feature of this trap and creates two focal attraction sources from one trap for different species of wasps, hornets, and yellowjackets. Traps were hung 1.5-2.0 m above the ground on either the fence or tree branches ca. 5 m apart within each trap line. For each trapping experiment, six sets of traps were deployed with their initial trap positions within each set being randomized. To minimize positional effects and obtain more replications, wasp collections and trap re-randomization were carried out when ≧10-20 wasps were caught in the best trap. Each replicate lasted several days depending on wasp flight activity. Captured wasps were removed from the traps and kept in the zip-bags before taking back to the laboratory for recording of the species, gender status, and catch.
(§2) Experiment 3 (Aug. 5-13, 2009) was conducted to determine the potential behavioral activity of different doses of (E)-4,8-dimethyl-1,3,7-nonatriene alone. The individual (or different doses) HIPVs were loaded into either polyethylene bags or centrifuge tube type of dispensers, and released from the top of the W•H•Y trap chamber. W•H•Y trap attractants (both top and bottom or top only) alone and water (top chamber only) were included in the test as positive and blank controls, respectively. The dispenser types, loading and release rates of the tested semiochemicals are described in Tables 1, 2 and 3.
(§3) Trap catch data were converted to proportion (P) of total captured wasps within each replicate. Data were then transformed by arcsin√P to meet the assumptions of normality and homogeneity of variances for ANOVA. Means were compared by ANOVA followed by the Ryan-Einot-Gabriel-Welsh (REGW) multiple Q test (SPSS 16.0 for Windows) at α=0.05.

[2] = system: V. acadica; assay: Field trapping Experiment 1, Rescue W•H•Y traps; type: in vivo, Vespula acadica; conditions: Exp 1; HIPV added to WHY attractant in the top chamber, or WHY alone
Experimental: as §1, §2, §3

[3] = system: V. vulgaris; assay: Field trapping Experiment 1, Rescue W•H•Y traps; type: in vivo, Vespula vulgaris; conditions: Exp 1; HIPV added to WHY attractant in the top chamber, or WHY alone
Experimental: as §1, §2, §3

[4] = system: P. dominulus workers antennae; assay: GC-EAD of synthetic mixture of known HIPVs; design: species or system Polistes dominulus; conditions: 100 ng/μl each in hexane
Experimental: Aeration samples of the cherry branches (damaged or undamaged/slightly damaged) were injected (3 μl) splitless into a Varian CP-3800 GC equipped with a polar column (HP-INNOWax; 30 m×0.53 mm×1.0 μm film thickness; Agilent Technologies, Wilmington, Del., USA) and a 1:1 effluent splitter that allowed simultaneous flame ionization detection (FID) and electroantennographic detection (EAD) of the European paper wasp (Polistes dominulus) worker antennae to the separated volatile compounds. Helium was used as the carrier gas, and the injector and detector temperatures were 250° C. and 300° C., respectively. Column temperature was 50° C. for 1 min, rising to 240° C. at 10° C./min, and then held for 10 min. The outlet for the EAD was held in a humidified air stream flowing at 0.5 m/sec over the antennal preparation. EAD recordings were made using silver wire-glass capillary electrodes filled with Beadle-Ephrussi Ringer on freshly cut antennae. The antennal signals were stored and analyzed on a PC equipped with a serial IDAC interface box and the program EAD ver. 2.5 (Syntech, Hilversum, The Netherlands). In addition, GC-EAD responses to a synthetic mixture (100 ng/μl each) containing nine known HIPVs including cis-3-hexen-1-ol, cis-3-hexenyl acetate, trans-β-ocimene, (E)-4,8-dimethyl-1,3,7-nonatriene, linalool, methyl salicylate, geranyl acetate, trans-β-caryophyllene and trans-β-farnesene were tested on the P. dominulus workers. (See FIG. 2.) The same chemicals were also tested on beneficial insect antennae from Chrysopa oculata, Myrmeleon crudelis, Podisus maculiventris, and Hippodarnia convergens. (See FIG. 6.) Antennally active peaks in the aeration samples were identified by GC-MS on an HP 6890 GC series coupled with an HP 5973 Mass Selective Detector using the same type of GC column and conditions as described above. Compounds were identified by comparison of retention times with those of authentic standards and with mass spectra of standards.

[5] = system: D. arenaria; assay: Field trapping Experiment 1, Rescue W•H•Y traps; type: in vivo, Dolichovespula arenaria; conditions: Exp 1; HIPV added to WHY attractant in the top chamber, or WHY alone
Experimental: as §1
Experiment 1 (Jul. 22-30, 2009) tested ten synthetic HIPV candidates [(E)-2-hexenal, (Z)-3-hexen-1-ol, (Z)-3-hexenyl acetate, cis-ocimene, linalool, methyl salicylate, geranyl acetate, trans-β-caryophyllene, trans-β-farnesene and (E)-4,8-dimethyl-1,3,7-nonatriene], including several paper wasp EAD-active compounds (see FIG. 2 for details), to determine their potential synergistic effect on the Rescue® W•H•Y trap attractants to paper wasps, yellowjackets, and hornets. Experiment 2 (Aug. 5-13, 2009) tested behavioral responses of the paper wasps and yellowjackets to the Rescue® W•H•Y trap attractants (top attractants only) and its combination with (E)-4,8-dimethyl-1,3,7-nonatriene, one of the EAD-active and behaviorally significant HIPVs, in a dose-response fashion. Experiment 3 (Aug. 5-13, 2009) was conducted to determine the potential behavioral activity of different doses of (E)-4,8-dimethyl-1,3,7-nonatriene alone. The individual (or different doses) HIPVs were loaded into either polyethylene bags or centrifuge tube type of dispensers, and released from the top of the W•H•Y trap chamber. W•H•Y trap attractants (both top and bottom or top only) alone and water (top chamber only) were included in the test as positive and blank controls, respectively. The dispenser types, loading and release rates of the tested semiochemicals are described in Tables 1, 2 and 3.
as §3

[6] = system: P. dominulus; assay: Field trapping Experiment 1, Rescue W•H•Y traps; type: in vivo, Polistes dominulus; conditions: Exp 1; HIPV added to WHY attractant in the top chamber, or WHY alone
Experimental: as §1, §2, §3

[7] = system: P. aurifer; assay: Field trapping Experiment 1, Rescue W•H•Y traps; type: in vivo, Polistes aurifer; conditions: Exp 1; HIPV added to WHY attractant in the top chamber, or WHY alone
Experimental: as §1, §2, §3

| SMILES | Total Yellowjacket Catches V. pensylvanica [1] | Total Yellowjacket Catches V. acadica [2] | Total Yellowjacket Catches V. vulgaris [3] | EAD response of worker antennae [4] | Total Yellowjacket Catches D. arenaria [5] | Total Paper Wasps P. dominulus [6] | Total Paper Wasps P. aurifer [7] |
| --- | --- | --- | --- | --- | --- | --- | --- |
| C=C/C=C(\C)CCC=C(C)C [(E)-4,8-dimethyl-1,3,7-nonatriene] | 463 | 1 | 52 | responded consistently | 7 | 152 | 12 |
| COC(=O)c1ccccc1O [Methyl Salicylate, methyl salicylate] | 226 | 0 | 23 | responded consistently | 4 | 33 | 6 |
| CC/C=C\CCO [Z-3-Hexanol, (Z)-3-hexen-1-ol] | 288 | 0 | 33 | responded consistently | 1 | 25 | 4 |
| CC/C=C\CCOC(C)=O [Z-3-Hexenyl Acetate, (Z)-3-hexenyl acetate] | 311 | 1 | 34 | responded consistently | 8 | 40 | 9 |
